The results in this text go back to patent publication US20260374739A1, “SMALL MOLECULAR WEIGHT CHEMICAL COMPOUND TO ANTAGONIZE EPH-EPHRIN TETRAMERIZATION AND INHIBIT BIDIRECTIONAL SIGNALING” (THE BOARD OF REGENTS OF THE UNIVERSITY OF TEXAS SYSTEM, priority 2022, published 2026).

For the test, the target named is pre-formed EphrinB2-EphB2 tetramer (Homo sapiens, UniProt P29323). The test can be described thus: Octet competition of pre-existing tetramers, human EphrinB2-EphB2. The conditions noted are these: 2, 10, 50 μM. It is filed as binding. How it is done:
Biophysical studies were conducted to explore if A20 is able to disrupt pre-existing stable tetramers, focusing on interactions of immobilized human EphrinB2 binding to soluble human EphB1 and EphB2, and immobilized mouse EphB2 binding to mouse EphrinB2 (FIGS. 29A-29C). In these experiments, sensor-chip immobilized proteins were first exposed to 50 nM of their soluble target protein for an 800 sec association step and 1,000 sec dissociation step to generate pre-formed stable tetramers, which were then subjected to a 1,000 sec competition step that included either 0, 2, 10, or 50 μM concentrations of A20 salt compound. […] The ability of A20 to disrupt pre-existing tetramers was most pronounced for human EB2-EphB2 and cognate murine EphB2-EB2 experiments and indicated a gradual ongoing dose-dependent decline in tetramers throughout the 1,000 sec competition step (and beyond if allowed) and irrespective of whether the human EphrinB2 or murine EphB2 was the immobilized protein.

Sequence of pre-formed EphrinB2-EphB2 tetramer (P29323 19-543 limits assumed): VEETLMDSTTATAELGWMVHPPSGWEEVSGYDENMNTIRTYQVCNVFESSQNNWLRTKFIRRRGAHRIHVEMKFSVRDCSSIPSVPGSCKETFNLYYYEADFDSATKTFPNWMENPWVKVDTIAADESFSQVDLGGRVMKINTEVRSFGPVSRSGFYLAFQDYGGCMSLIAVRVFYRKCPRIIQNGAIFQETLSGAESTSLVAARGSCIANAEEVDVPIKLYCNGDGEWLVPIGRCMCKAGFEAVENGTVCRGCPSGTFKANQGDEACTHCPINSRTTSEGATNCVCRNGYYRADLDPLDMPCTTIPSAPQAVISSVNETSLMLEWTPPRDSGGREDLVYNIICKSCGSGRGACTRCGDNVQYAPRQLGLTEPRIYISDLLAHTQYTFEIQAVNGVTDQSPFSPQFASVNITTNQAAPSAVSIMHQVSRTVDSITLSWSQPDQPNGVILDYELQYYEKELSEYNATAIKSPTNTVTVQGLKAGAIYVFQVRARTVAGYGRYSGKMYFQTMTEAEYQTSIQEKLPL

For `Oc1c(Br)cc(CN2CCOCC2)c2cccnc12` [Compound 5, 7-bromo-5-(morpholinomethyl)quinolin-8-ol], the “competition of pre-formed tetramers” value was “able to compete away in a dose-dependent manner a significant amount of the stable pre-formed tetramer complexes”.
